Key:
Format in all cases: cell-based, human
[1] = tested on: MECP2-mosaic (CTR/KO) neurospheres; assay: Calcium imaging of neurospheres; settings: for calcium transient amplitude: P=0.255
Experimental: Calcium imaging. Calcium imaging was performed as described in Chailangkarn et al. Briefly, PSC-derived neuronal networks were lentivirally transduced with a Syn::RFP reporter construct. Cultures were washed with Krebs HEPES buffer and incubated with Fluo-4AM (Molecular Probes/Invitrogen, Carlsbad, Calif., USA). A Hamamatsu ORCA-ER digital camera (Hamamatsu Photonics, Japan) with 488 nm filter on an Olympus IX81 inverted fluorescence confocal microscope (Olympus Optical, Tokyo, Japan) acquired 5000 frames at 28 Hz in a 256×256 pixel region (100× magnification). Images were acquired with MetaMorph7.7 (MDS Analytical Technologies, Sunnyvale, Calif., USA) and analyzed with ImageJ and Matlab7.2 (Mathworks, Natick, Mass., USA). Syn::RFP+ neurons were selected following tetrodotoxin blockade of calcium transients. A 95th-percentile threshold of amplitude for calcium spikes was set for event detection; signal amplitude is presented as fluorescence change (ΔF/F) following background subtraction.
Nefiracetam and PHA 543613 increase activity in MECP2-mosaic neurospheres. Because MECP2 resides on the X chromosome, random X-inactivation in females can produce a genetic pattern of mosaicism, with consequent phenotypic gradation, in which some cells express the normal allele while others are mutant. Therefore, as the next stage to evaluate the two drug candidates, a neurosphere model of MECP2 mosaicism was developed to mimic the female RTT brain by combining different proportions of control and MECP2-KO NPCs (see FIG. 7A-C). […] Calcium transient frequency in MECP2-mosaic neurospheres was increased by treatment with Nefiracetam in isolation (1 μM, P<0.05) and when combined with PHA 543613 (10 μM, P<0.001; FIG. 7H), but calcium transient amplitude was unaffected by either compound (P=0.255; FIG. 7I). To investigate the impact of the drug treatments on the electrophysiological properties of the MECP2-mosaic model, neurospheres treated with 1 μM Nefiracetam, 1 μM PHA 543613, or both Nefiracetam and PHA 543613 were plated to perform MEA analysis. […]

[2] = tested on: MECP2-KO cortical organoids; assay: MEA electrophysiology of cortical organoids; settings: 1 μM for one month, compared with control organoids
Experimental: Multi-electrode array (MEA) analysis. MEA analyses of neurons and cortical organoids were performed as described in Nageshappa et al. (Mol. Psychiatry 21:178-188 (2016)). Briefly, 3D neurosphere cultures of NPC derivation were plated on dual-chamber MEA; spontaneous spike activity was evaluated with the MED64 System (Panasonic). Glutamatergic (AP5, NBQX), GABAergic (Gabazine), and gap channel (Mefloquine) antagonism were used to check neuronal activity. After measurement, neurons were immunostained to check morphology and density. Recorded spikes were analyzed with the software Neuroexplorer (Nex Technologies, Madison, Ala., USA). For cortical organoids, 1-month organoids were plated on MEA plates and recordings were collected with a Maestro MEA system and AxIS Software Spontaneous Neural Configuration (Axion Biosystems, Atlanta, Ga., USA) using a customized script. The plate rested in the machine for three minutes followed by four minutes of recording. […] The synchrony index was calculated using a 20 ms cross-correlogram synchrony window was used to determine the synchrony index. […]
Nefiracetam and PHA 543613 rescue network activity in MECP2-KO cortical organoids. The therapeutic efficacy of Nefiracetam and PHA 543613 was evaluated with cortical organoids, a complex, three-dimensional human neurodevelopmental model that closely recapitulates aspects of human fetal neurodevelopment. […]

[3] = tested on: MECP2-KO neurons; assay: Nuclei size in neurons; settings: vs KO untreated
[4] = tested on: MECP2-KO cortical organoids; assay: Nuclei size in cortical organoids; settings: vs KO untreated

Compound	calcium transient frequency ([1]; 1 μM, in isolation, P<0.05 vs CTR/KO untreated)	calcium transient amplitude [1]	population spiking (MEA) [2]	nuclei size in neurons [3]	nuclei size in cortical organoids [4]
Cc1cccc(C)c1NC(=O)CN1CCCC1=O [Nefiracetam, nefiracetam]	increased	unaffected	increased population spiking to a level not significantly different from that of control organoids	did not rescue	did not rescue
O=C(N[C@H]1CN2CCC1CC2)c1cc2ccoc2cn1 [PHA 543613, N-[(3R)-1-azabicyclo[2.2.2]oct-3-yl]furo[2,3-c]pyridine-5-carboxamide]	–	unaffected	increased population spiking to a level not significantly different from that of control organoids	did not rescue	did not rescue
